According to patent US20190375786A1, “STABLE PEPTIDES AND METHODS OF USE THEREOF” (Fred Hutchinson Cancer Research Center, priority 2016, published 2019):
Positions of bridges follow the written chain, without caps; N, C: chain ends. Residues, ends and D or L forms follow the SMILES beside them.

How the values were obtained:
trypsin = trypsin (Sus scrofa, UniProt P00761); assay: Trypsin digestion resistance of soluble peptide, RP-HPLC; type: in vitro ADME, porcine; design: purchased Sigma Aldrich 6567; details: 500 U/ml trypsin, 30 minutes at 37.5° C.; HPLC peak vs untreated peptide
Summary of the method: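 12.5 μg soluble peptide digested with 500 U/ml porcine trypsin in PBS, 30 min at 37.5° C; quenched with soybean trypsin inhibitor, with or without 10 mM DTT reduction afterwards. Intact peptide assessed by C-18 RP-HPLC, 5-45% acetonitrile/0.1% TFA gradient over 10 min.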

pepsin = pepsin (Sus scrofa, UniProt P00791); assay: Pepsin digestion resistance in simulated gastric fluid, RP-HPLC; type: in vitro ADME, porcine; design: purchased Sigma Aldrich P7012; details: 500 U/ml pepsin in SGF pH 1.05, 30 minutes at 37.5° C.; HPLC peak vs untreated peptide
Summary of the method: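 Peptide (12.5 μg) incubated 30 min at 37.5 °C with or without 500 U/ml pepsin in simulated gastric fluid (pH 1.05; 2% NaCl in 0.7% HCl); some reactions quenched with 100 mM Tris and 10 mM DTT. Intact peptide followed by C-18 RP-HPLC (5–45% acetonitrile/0.1% TFA over 10 min) at 214 and 280 nm.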

Sequence of pepsin (P00791 60-385): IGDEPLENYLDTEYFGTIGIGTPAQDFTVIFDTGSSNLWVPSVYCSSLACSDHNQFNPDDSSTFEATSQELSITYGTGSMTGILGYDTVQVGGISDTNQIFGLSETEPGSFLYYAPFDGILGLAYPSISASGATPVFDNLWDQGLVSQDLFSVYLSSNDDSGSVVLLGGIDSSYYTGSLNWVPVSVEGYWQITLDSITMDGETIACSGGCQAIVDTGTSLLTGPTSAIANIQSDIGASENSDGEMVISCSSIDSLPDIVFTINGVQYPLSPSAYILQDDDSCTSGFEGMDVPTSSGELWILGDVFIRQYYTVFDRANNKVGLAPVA
Sequence of trypsin (P00761 9-231): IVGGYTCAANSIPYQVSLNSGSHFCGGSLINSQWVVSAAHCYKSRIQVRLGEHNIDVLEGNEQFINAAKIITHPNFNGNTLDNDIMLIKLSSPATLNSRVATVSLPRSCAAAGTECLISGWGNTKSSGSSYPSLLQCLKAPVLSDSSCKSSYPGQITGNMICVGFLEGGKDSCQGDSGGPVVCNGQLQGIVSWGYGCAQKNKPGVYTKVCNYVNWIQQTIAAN

| SMILES | Resistance to Trypsin (500 U/ml) (trypsin) | Resistance to Pepsin (500 U/ml) (pepsin) |
| --- | --- | --- |
| CC(C)[C@H](NC(=O)[C@H](CO)NC(=O)CN)C(=O)N[C@@H](CO)C(=O)N[C@H]1CSSC[C@@H]2NC(=O)[C@H](CCCCN)NC(=O)[C@H](C)NC(=O)[C@H](CCCNC(=N)N)NC(=O)[C@H](CCC(N)=O)NC(=O)[C@H](CC(=O)O)NC(=O)[C@H](CCCCN)NC(=O)[C@H]([C@@H](C)O)NC(=O)[C@H](C)NC(=O)[C@@H]3CSSC[C@@H](C(=O)N[C@@H](CCC(=O)O)C(=O)N4CCC[C@H]4C(=O)N[C@@H](CCCCN)C(=O)O)NC(=O)[C@H](C(C)C)NC(=O)[C@H](CSSC[C@H](NC(=O)[C@H](CC(=O)O)NC(=O)[C@H](CCC(=O)O)NC1=O)C(=O)N1CCC[C@H]1C(=O)N[C@@H](CCC(=O)O)C(=O)N[C@@H](Cc1c[nH]cn1)C(=O)N3)NC(=O)[C@H](CCCNC(=N)N)NC(=O)[C@H](CC(=O)O)NC(=O)[C@H](CC(N)=O)NC(=O)[C@H](CC(=O)O)NC2=O [compound 54] (H-GSVSCEDCPEHCATKDQRAKCDNDRCVCEPK-OH; disulfide 5-21, 8-26, 12-28) | Low (A peptide classified as low indicates that the majority (over 75%) of the HPLC peak of the treated peptide disappeared as compared to the HPLC peak of the untreated peptide) | High (A peptide classified as high indicates that the majority (at least 75%) of the HPLC peak of the treated peptide is still present as compared to the HPLC peak of the untreated peptide) |
| CC[C@H](C)[C@H](NC(=O)CNC(=O)[C@H](CO)NC(=O)CN)C(=O)N[C@H](C(=O)N[C@H]1CSSC[C@@H]2NC(=O)[C@H]([C@@H](C)CC)NC(=O)[C@H](CC(N)=O)NC(=O)[C@H](C(C)C)NC(=O)[C@H](CCCCN)NC(=O)[C@H](CCCCN)NC(=O)CNC(=O)[C@H](CCC(N)=O)NC(=O)[C@H](CCSC)NC(=O)CNC(=O)[C@@H]3CSSC[C@@H](C(=O)N[C@@H](CCCCN)C(=O)N[C@@H](CCCCN)C(=O)NCC(=O)O)NC(=O)[C@H](CCCCN)NC(=O)[C@H](CSSC[C@H](NC(=O)[C@H](C(C)C)NC(=O)[C@H](CCCCN)NC1=O)C(=O)N[C@@H](CCCCN)C(=O)N[C@@H]([C@@H](C)CC)C(=O)N[C@@H]([C@@H](C)CC)C(=O)N3)NC(=O)[C@H](CCCCN)NC(=O)[C@H]([C@@H](C)CC)NC(=O)[C@@H]1CCCN1C(=O)[C@H](C)NC(=O)[C@H](CCCCN)NC2=O)C(C)C [compound 55] (H-GSGIVCKVCKIICGMQGKKVNICKAPIKCKCKKG-OH; disulfide 6-23, 9-29, 13-31) | Low (A peptide classified as low indicates that the majority (over 75%) of the HPLC peak of the treated peptide disappeared as compared to the HPLC peak of the untreated peptide) | High (A peptide classified as high indicates that the majority (at least 75%) of the HPLC peak of the treated peptide is still present as compared to the HPLC peak of the untreated peptide) |
| CC[C@H](C)[C@@H]1NC(=O)[C@@H]2CSSC[C@@H]3NC(=O)[C@H](CCCCN)NC(=O)CNC(=O)[C@H](CC(N)=O)NC(=O)[C@H](CCSC)NC(=O)[C@H](CSSC[C@H](NC(=O)[C@H](CCCCN)NC(=O)[C@@H](NC(=O)[C@H](CC(=O)O)NC(=O)[C@@H](NC(=O)[C@@H]4CCCN4C(=O)[C@@H](NC(=O)CNC(=O)[C@H](CO)NC(=O)CN)C(C)C)[C@@H](C)O)C(C)C)C(=O)N[C@@H](CCCNC(=N)N)C(=O)NCC(=O)N[C@@H](CO)C(=O)N4CCC[C@H]4C(=O)N[C@@H](CCC(N)=O)C(=O)N2)NC(=O)[C@H](CCCCN)NC(=O)CNC(=O)[C@H](Cc2ccccc2)NC(=O)[C@H](CCCNC(=N)N)NC(=O)[C@H](CCSC)NC(=O)CNC(=O)[C@H](C)NC(=O)[C@H](CC(=O)O)NC(=O)[C@H](CCCCN)NC(=O)[C@H](CSSC[C@@H](C(=O)N[C@H](C(=O)N2CCC[C@H]2C(=O)N[C@@H](CCCCN)C(=O)O)[C@@H](C)O)NC(=O)[C@H](Cc2c[nH]cn2)NC3=O)NC(=O)[C@@H]2CCCN2C(=O)[C@H](CCC(N)=O)NC1=O [compound 56] (H-GSGVPTDVKCRGSPQCIQPCKDAGMRFGKCMNGKCHCTPK-OH; disulfide 10-30, 16-35, 20-37) | Low (A peptide classified as low indicates that the majority (over 75%) of the HPLC peak of the treated peptide disappeared as compared to the HPLC peak of the untreated peptide) | High (A peptide classified as high indicates that the majority (at least 75%) of the HPLC peak of the treated peptide is still present as compared to the HPLC peak of the untreated peptide) |
| CC[C@H](C)[C@@H]1NC(=O)[C@H](CCCCN)NC(=O)[C@@H](NC(=O)[C@H](CCCCN)NC(=O)[C@@H](NC(=O)[C@H](CC(N)=O)NC(=O)[C@@H](NC(=O)[C@@H](NC(=O)[C@@H](NC(=O)CNC(=O)[C@H](CO)NC(=O)CN)C(C)C)[C@@H](C)CC)[C@@H](C)CC)C(C)C)CSSC[C@@H]2NC(=O)[C@H](CCCCN)NC(=O)CNC(=O)[C@H](Cc3ccccc3)NC(=O)[C@H](CCCNC(=N)N)NC(=O)[C@H](CCSC)NC(=O)CNC(=O)[C@H](C)NC(=O)[C@H](CCCCN)NC(=O)[C@H](CCCCN)NC(=O)[C@@H]3CSSC[C@@H](C(=O)N[C@H](C(=O)N4CCC[C@H]4C(=O)N[C@@H](CCCCN)C(=O)O)[C@@H](C)O)NC(=O)[C@H](Cc4c[nH]cn4)NC(=O)[C@H](CSSC[C@H](NC(=O)[C@H](CCC(N)=O)NC(=O)[C@H](CCCNC(=N)N)NC(=O)[C@H](CO)NC1=O)C(=O)N[C@@H](CC(C)C)C(=O)N[C@@H](CCC(=O)O)C(=O)N1CCC[C@H]1C(=O)N3)NC(=O)[C@H](CCCCN)NC(=O)CNC(=O)[C@H](CC(N)=O)NC(=O)[C@H](CCSC)NC2=O [compound 57] | High (A peptide classified as high indicates that the majority (at least 75%) of the HPLC peak of the treated peptide is still present as compared to the HPLC peak of the untreated peptide) | High (A peptide classified as high indicates that the majority (at least 75%) of the HPLC peak of the treated peptide is still present as compared to the HPLC peak of the untreated peptide) |
